Source: ChEMBL document CHEMBL5303573, “Mapping human microbiome drug metabolism by gut bacteria and their genes” (Nature, 2019)

What was measured:
Assay type in all cases: ADME
Design in all cases: dose 2 uM, timepoint 0, 1, 2, 4, 6, 8, 12, 18, 24 hours
Details in all cases: 2 µM
[1] = (§1) The drug is tested on the gut metagenome community of MV22 with ENA study accession number: PRJEB31790 and ENA sample accession number: SAMEA5537503 for biotransformation. The drug concentrations were measured over 9 timepoints collected between 0 and 24 hours of incubation by liquid-chromatography-coupled mass spectrometry (LC–MS)
[2] = as §1, with “MV10” for “MV22”, “SAMEA5537491” for “SAMEA5537503”
[3] = as §1, with “MV21” for “MV22”, “SAMEA5537502” for “SAMEA5537503”
[4] = as §1, with “MV18” for “MV22”, “SAMEA5537499” for “SAMEA5537503”
[5] = as §1, with “MV27” for “MV22”, “SAMEA5537508” for “SAMEA5537503”
[6] = as §1, with “MV26” for “MV22”, “SAMEA5537507” for “SAMEA5537503”
[7] = as §1, with “MV03” for “MV22”, “SAMEA5537484” for “SAMEA5537503”
[8] = as §1, with “MV17” for “MV22”, “SAMEA5537498” for “SAMEA5537503”
[9] = as §1, with “MV07” for “MV22”, “SAMEA5537488” for “SAMEA5537503”
[10] = as §1, with “MV16” for “MV22”, “SAMEA5537497” for “SAMEA5537503”
[11] = as §1, with “MV04” for “MV22”, “SAMEA5537485” for “SAMEA5537503”
[12] = as §1, with “MV25” for “MV22”, “SAMEA5537506” for “SAMEA5537503”
[13] = as §1, with “MV06” for “MV22”, “SAMEA5537487” for “SAMEA5537503”
[14] = as §1, with “MV09” for “MV22”, “SAMEA5537490” for “SAMEA5537503”
[15] = as §1, with “MV11” for “MV22”, “SAMEA5537492” for “SAMEA5537503”
[16] = as §1, with “MV12” for “MV22”, “SAMEA5537493” for “SAMEA5537503”

Measured: Bacterial Biotransformation

C[C@@H]1C[C@H]2[C@@H]3CCC4=CC(=O)C=C[C@]4(C)[C@@]3(F)[C@@H](O)C[C@]2(C)[C@@]1(O)C(=O)CO [DEXAMETHASONE]
Compound metabolized: [2] | [7] | [14]
Compound NOT metabolized: all other assays above
